Results taken from US11512042B2, “Enamine compounds for absorbance of electromagnetic energy” (Commonwealth Scientific and Industrial Research Organisation, priority 2015, dated 2022).

What was measured:
Format in all cases: physicochemical
[1] = Photostability protocol: thin film irradiated with xenon arc lamp; conditions: 1 hour xenon arc lamp
Experimental: 1 mL of a 3% solution of the test compound (30 mg of test compound in 1 mL solvent) was prepared in a solvent mix made up of 50% EtOH and 25% capric/caprylic triglyceride and 25% C12-C15 alkyl benzoate. 50 μL of this solution (containing 1.5 mg of test compound) was added carefully to the centre of a glass microscope slide and the volatile components left to evaporate in the dark for at least 3 hours to give a liquid film. The prepared films were then exposed for 1 hour to an Eimac 150 W xenon arc lamp filtered through Pyrex (15 Amp supply current, samples 19 cm from the lamp) previously allowed to warm up for 15 minutes prior to sample exposure. The irradiation was performed in a fume cupboard where the air flow was sufficient to keep sample T<30° C. One hour's exposure represented a calculated radiation dose (using meter) of approximately 100 MED.
In order to calculate the photostability of the test compounds, the exposed slides were placed in a beaker and rinsed with 2×5 mL EtOH, 1×5 mL MeOH. The combined washings were then added to a 100 mL volumetric flask and made up to 100 mL total volume with methanol. The UV absorbance was then measured in a 10 mm cuvette. The percent stability is measured as the ratio of absorbance at λmax for the irradiated sample compared to the unirradiated sample.
The thin films are a good surrogate for testing the stability of a candidate in, for example, a sunscreen formulation as they use cosmetic emollients as solvent and are formed at cosmetically relevant concentrations.

[2] = UV absorbance spectrum in solution (λmax, λcrit, extinction coefficients); conditions: for λcrit: critical wavelength; for E (1%, 1 cm): mass extinction coefficient; for ε: molar extinction coefficient, in M-1 cm-1 (unit assumed)
Description: (§1) FIG. 1 is a graphical representation of the absorbance of compounds 142 and 143 measured in a 10 mm cuvette as 0.001% solutions in methanol (142 is the uppermost trace at peak point of approximately 330 nm); The synthesised benzoyl functionalised compounds and their spectroscopic properties can be seen in table 2 wherein; breakthrough denotes the value in nm where transmittance increases beyond 1%; steepness refers to the distance in nm over which transmittance increases from 1 to 80% (a higher value indicates a less steep transition from absorbing to transmitting and is generally unfavourable); and ^a denotes an average of multiple measurements. As a general comment, it can be noted that the benzoyl substituted compounds gave similar absorbance maxima to the corresponding trifluoroacetyl derivative.

[3] = % transmission spectrum of 0.1% solution (breakthrough, steepness); conditions: for Steepness: distance in nm over which transmittance increases from 1 to 80%; for Breakthrough (1% T at 0.1%): value in nm where transmittance increases beyond 1%, 0.1% solution
Description: FIG. 2 is a is a graphical representation of the % transmission of compounds 142 and 143 measured in a 2 mm cuvette as 0.1% solutions in methanol (142 is the left most trace);
as §1, with “The” for “FIG. 1 is a graphical representation of the absorbance of compounds 142 and 143 measured in a 10 mm cuvette as 0.001% solutions in methanol (142 is the uppermost trace at peak point of approximately 330 nm); The”

For `COc1ccc2c(c1)CCN2/C=C(\C(=O)C(F)(F)F)c1ccccc1` [Compound 200], the “Photostability (% remains)” value [1] was 91%, the λmax [2] was 381 nm and the λcrit [2] was 393 nm. The “E (1%, 1 cm)” value [2] was 1004 and the ε [2] was 34855.
In the case of `CCCCC(CC)COC(=O)c1cccc(N(/C=C(/C(=O)C(F)(F)F)c2ccccc2)CC)c1` (stereo not drawn) [Compound 232], the Steepness [3] is reported as 35 nm, the “Breakthrough (1% T at 0.1%)” value [3] is reported as 373 nm and the λmax [2] is reported as 334 nm. For the same compound, the λcrit [2] was 368 nm, the “E (1%, 1 cm)” value [2] was 430 and the ε [2] was 20462.
For `CN(C)S(=O)(=O)c1ccc(C(=O)/C(=C/N2CCc3ccccc32)c2ccccc2)cc1` [Compound 266], the Steepness [3] was 46 nm, the “Breakthrough (1% T at 0.1%)” value [3] was 429 nm and the λmax [2] was 368 nm. For the same compound, the λcrit [2] was 390 nm, the “E (1%, 1 cm)” value [2] was 552 and the ε [2] was 23870.
With `COC(=O)c1ccc2c(c1)CCN2/C=C(/C(=O)OC1(C)CCCCC1)c1ccccc1` [Compound 288] the Steepness [3] was 28 nm, the “Breakthrough (1% T at 0.1%)” value [3] was 383 nm and the λmax [2] was 356 nm. For the same compound, the λcrit [2] was 370 nm, the “E (1%, 1 cm)” value [2] was 1360 and the ε [2] was 57009.
In the case of `CCN(/C=C(\C(=O)C(F)(F)F)c1ccccc1)CCCCCCN(/C=C(\C(=O)C(F)(F)F)c1ccccc1)CC` [Compound 242], the Steepness [3] is reported as 52 nm, the “Breakthrough (1% T at 0.1%)” value [3] is reported as 361 nm and the λmax [2] is reported as 318 nm. The λcrit [2] was 353 nm, the “E (1%, 1 cm)” value [2] was 544 and the ε [2] was 30981.
For `CCN(/C=C(\C(C)=O)c1ccccc1)CC` [Compound 149], the “Photostability (% remains)” value [1] was 6%, the λmax [2] was 294 nm and the “E (1%, 1 cm)” value [2] was 690. The ε [2] was 14973.
With `O=C(OCCCOC(=O)c1ccc2c(c1)CCN2/C=C(\C(=O)C(F)(F)F)c1ccccc1)c1ccc2c(c1)CCN2/C=C(\C(=O)C(F)(F)F)c1ccccc1` [Compound 228] the “Photostability (% remains)” value [1] was 95%, the λmax [2] was 374 nm and the λcrit [2] was 391 nm. For the same compound, the “E (1%, 1 cm)” value [2] was 1168 and the ε [2] was 89042.
In the case of `O=C(/C(=C(/c1ccccc1)N1CCCC1)c1ccccc1)C(F)(F)F` [Compound 204], the “Photostability (% remains)” value [1] is reported as 70%, the λmax [2] is reported as 363 nm and the λcrit [2] is reported as 387 nm. For the same compound, the “E (1%, 1 cm)” value [2] was 358 and the ε [2] was 12357.
For `O=C(/C(=C\N1CCc2cc(C(F)(F)F)ccc21)c1ccccc1)C(F)(F)F` [Compound 235], the Steepness [3] was 19 nm, the “Breakthrough (1% T at 0.1%)” value [3] was 409 nm and the λmax [2] was 361 nm. The λcrit [2] was 386 nm, the “E (1%, 1 cm)” value [2] was 965 and the ε [2] was 37158.
For `CCN(/C=C(\C(=O)c1c(F)c(F)c(F)c(F)c1F)c1ccccc1)CC` [Compound 203], the “Photostability (% remains)” value [1] was 31%, the λmax [2] was 319 (broad) nm and the λcrit [2] was 356 nm. The “E (1%, 1 cm)” value [2] was 611 and the ε [2] was 22532.
With `COC(=O)c1ccc(N(/C=C(\C(=O)C(F)(F)F)c2ccccc2)c2ccccc2)cc1` [Compound 229] the Steepness [3] was 33 nm, the “Breakthrough (1% T at 0.1%)” value [3] was 403 nm and the λmax [2] was 356 nm. The λcrit [2] was 382 nm, the “E (1%, 1 cm)” value [2] was 786 and the ε [2] was 33427.
With `CN(C)S(=O)(=O)c1ccc(C(=O)/C(=C/N(c2ccccc2)c2ccccc2)c2ccccc2)cc1` [Compound 265] the Steepness [3] was 48 nm, the “Breakthrough (1% T at 0.1%)” value [3] was 418 nm and the λmax [2] was 360 nm. The λcrit [2] was 387 nm, the “E (1%, 1 cm)” value [2] was 327 and the ε [2] was 15775.
For `COC(=O)c1ccc2c(c1)CCN2/C=C(/C(=O)C(=O)Oc1ccccc1)c1ccccc1` [Compound 281], the Steepness [3] was 34 nm, the “Breakthrough (1% T at 0.1%)” value [3] was 419 nm and the λmax [2] was 376 nm. For the same compound, the λcrit [2] was 392 nm, the “E (1%, 1 cm)” value [2] was 703 and the ε [2] was 30040.
